Laboratory results as given in US12600717B2, “Tricyclic compounds as inhibitors of KRAS” (Incyte Corporation, priority 2021, dated 2026).

Columns and labels:
[1] = target: KRAS G12D (Homo sapiens, UniProt P01116, G12D); experiment: GDP-GTP exchange assay (bodipy-GDP/GppNHp, SOS1), KRAS G12D; assay type: biochemical; details: bodipy-loaded KRAS G12D 2.5 nM, 4 hours pre-incubation with inhibitor, 2 hours after GppNHp/SOS1; read-out: G12D_exchange IC50
Description: (§1) The inhibitor potency of the exemplified compounds was determined in a fluorescence based guanine nucleotide exchange assay, which measures the exchange of bodipy-GDP (fluorescently labeled GDP) for GppNHp (Non-hydrolyzable GTP analog) to generate the active state of KRAS in the presence of SOS1 (guanine nucleotide exchange factor). Inhibitors were serially diluted in DMSO and a volume of 0.1 μL was transferred to the wells of a black low volume 384-well plate. 5 μL/well volume of bodipy-loaded KRAS G12D diluted to 2.5 nM in assay buffer (25 mM Hepes pH 7.5, 50 mM NaCl, 10 mM MgCl2 and 0.01% Brij-35) was added to the plate and pre-incubated with inhibitor for 4 hours at ambient temperature. Appropriate controls (enzyme with no inhibitor or with a G12D inhibitor) were included on the plate. The exchange was initiated by the addition of a 5 μL/well volume containing 1 mM GppNHp and 300 nM SOS1 in assay buffer. The 10 μL/well reaction concentration of the bodipy-loaded KRAS G12D, GppNHp, and SOS1 were 2.5 nM, 500 uM, and 150 nM, respectively. The reaction plates were incubated at ambient temperature for 2 hours, a time estimated for complete GDP-GTP exchange in the absence of inhibitor. For the KRAS G12V mutant, similar guanine nucleotide exchange assays were used with 2.5 nM as final concentration for the bodipy loaded KRAS proteins and 3 hours incubation after adding GppNHp-SOS1 mixture. A cyclic peptide described to selectively bind G12D mutant (Sakamoto et al., BBRC 484.3 (2017), 605-611) or internal compounds with confirmed binding were used as positive controls in the assay plates. Fluorescence intensities were measured on a PheraStar plate reader instrument (BMG Labtech) with excitation at 485 nm and emission at 520 nm.
(§2) Either GraphPad prism or Genedata Screener SmartFit was used to analyze the data. The IC50 values were derived by fitting the data to a four parameter logistic equation producing a sigmoidal dose-response curve with a variable Hill coefficient.
(§3) The symbol “†” indicates IC50≤100 nM, “††” indicates IC50>100 nM but ≤1 μM; and “†††” indicates IC50 is >1 μM but ≤5 μM, “††††” indicates IC50 is >5 μM but ≤10 μM. “NA” indicates IC50 not available.

[2] = target: KRAS G12V (Homo sapiens, UniProt P01116, G12V); experiment: GDP-GTP exchange assay (bodipy-GDP/GppNHp, SOS1), KRAS G12V; assay type: biochemical; details: bodipy-loaded KRAS G12V 2.5 nM, 3 hours incubation after adding GppNHp-SOS1; read-out: G12V_exchange IC50
Description: as §1, §2, §3

[3] = tested on: KRAS; experiment: Inhibition of KRAS activity, assay not specified (at least one assay described herein); details: remark in the synthesis example, assay not named
Description: The invention will be described in greater detail by way of specific examples. The following examples are offered for illustrative purposes, and are not intended to limit the invention in any manner. Those of skill in the art will readily recognize a variety of non-critical parameters which can be changed or modified to yield essentially the same results.

Sequence of KRAS G12V (P01116 1-188 isoform P01116-2 G12V): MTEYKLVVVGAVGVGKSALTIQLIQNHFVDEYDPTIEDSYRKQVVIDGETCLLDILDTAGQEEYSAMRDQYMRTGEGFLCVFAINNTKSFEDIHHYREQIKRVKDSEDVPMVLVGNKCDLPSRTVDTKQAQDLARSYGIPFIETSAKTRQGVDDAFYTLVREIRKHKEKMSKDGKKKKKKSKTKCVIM
Sequence of KRAS G12D (P01116 1-188 isoform P01116-2 G12D): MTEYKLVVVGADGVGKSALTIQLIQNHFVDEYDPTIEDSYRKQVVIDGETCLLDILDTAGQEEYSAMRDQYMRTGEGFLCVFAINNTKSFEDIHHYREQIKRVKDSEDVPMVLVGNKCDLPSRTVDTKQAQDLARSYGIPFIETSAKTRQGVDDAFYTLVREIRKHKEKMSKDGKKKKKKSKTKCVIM

| IC50 [1] [nM] | IC50 [2] [nM] | SMILES | potency of isolated peak relative to the other diastereomer [3] |
| --- | --- | --- | --- |
| ≤ 100 | ≤ 100 | CC(=O)N1CC[C@H](n2cnc3c(O[C@@H](C)[C@@H]4CCCN4C)nc4c(F)c(-c5cccc6cccc(C#N)c56)c(Cl)cc4c32)C[C@H]1CC#N (single isomer, unassigned) [Example 39b] | potent peak |
| ≤ 100 | ≤ 100 | CCc1nc2c(-c3cc(C(=O)NC)ccc3F)nc3c(F)c(-c4cc(O)cc5ccccc45)c(CCC#N)cc3c2n1C1C2CNC1C2 (single isomer, unassigned) [Example 17a, 3-(1-((endo)-2-Azabicyclo[2.1.1]hexan-5-yl)-8-(2-cyanoethyl)-2-ethyl-6-fluoro-7-(3-hydroxynaphthalen-1-yl)-1H-imidazo[4,5-c]quinolin-4-yl)-4-fluoro-N-methylbenzamide] | More potent peak |
| ≤ 100 | 100 to 1000 | CCc1nc2c(OCC34CCCN3CC(F)C4)nc3c(F)c(-c4c[nH]c5ccc(F)cc45)c(CCC#N)cc3c2n1C1C2CNC1C2 (mixture of isomers) [Example 30, 3-(1-((endo)-2-azabicyclo[2.1.1]hexan-5-yl)-2-ethyl-6-fluoro-7-(5-fluoro-1H-indol-3-yl)-4-(((2R,7aS)-2-fluorotetrahydro-1H-pyrrolizin-7a(5H)-yl)methoxy)-1H-imidazo[4,5-c]quinolin-8-yl)propanenitrile] | – |
| ≤ 100 | ≤ 100 | CCc1nc2c(-c3ccn4ncnc4c3)nc3c(F)c(-c4cc(O)cc5ccccc45)c(CCC#N)cc3c2n1C1C2CNC1C2 (single isomer, unassigned) [Example 21a, 3-(4-([1,2,4]Triazolo[1,5-a]pyridin-7-yl)-1-((endo)-2-azabicyclo[2.1.1]hexan-5-yl)-2-ethyl-6-fluoro-7-(3-hydroxynaphthalen-1-yl)-1H-imidazo[4,5-c]quinolin-8-yl)propanenitrile] | – |
| ≤ 100 | ≤ 100 | CCc1nc2c(C)nc3c(F)c(-c4cc(O)cc5ccccc45)c(CCC#N)cc3c2n1C1C2CNC1C2 (single isomer, unassigned) [Example 23a, 3-(1-((endo)-2-Azabicyclo[2.1.1]hexan-5-yl)-2-ethyl-6-fluoro-7-(3-hydroxynaphthalen-1-yl)-4-methyl-1H-imidazo[4,5-c]quinolin-8-yl)propanenitrile] | – |
| 100 to 1000 | 5000 to 10000 | CN(C)C(=O)CCc1nc2c(N3CC(N(C)C)C3)nc3c(OCc4ccccc4)c(-c4cccc5ccc(F)cc45)c(CCC#N)cc3c2n1[C@@H]1[C@@H]2CN[C@H]1C2 (relative stereo) [Example 14, 3-(6-(benzyloxy)-1-((endo)-2-azabicyclo[2.1.1]hexan-5-yl)-8-(2-cyanoethyl)-4-(3-(dimethylamino)azetidin-1-yl)-7-(7-fluoronaphthalen-1-yl)-1H-imidazo[4,5-c]quinolin-2-yl)-N,N-dimethylpropanamide] | – |
| ≤ 100 | ≤ 100 | CC(=O)N1CC[C@H](n2nnc3c(O[C@@H](C)[C@@H]4CCCN4C)nc4c(F)c(-c5cccc6cccc(C#N)c56)c(Cl)cc4c32)C[C@H]1CC#N [Example 44, 8-(1-((2S,4S)-1-acetyl-2-(cyanomethyl)piperidin-4-yl)-8-chloro-6-fluoro-4-((S)-1-((S)-1-methylpyrrolidin-2-yl)ethoxy)-1H-[1,2,3]triazolo[4,5-c]quinolin-7-yl)-1-naphthonitrile] | – |

Continued, molecule first:

| SMILES | IC50 [1] [nM] | IC50 [2] [nM] | potency of isolated peak relative to the other diastereomer [3] |
| --- | --- | --- | --- |
| CN(C)C(=O)CCc1nc2c(N3CC(N(C)C)C3)nc3c(F)c(-c4cc(O)cc(Cl)c4C4CC4)ccc3c2n1C1C2CNC1C2 (stereo not drawn) [Example 11, 3-(1-(2-azabicyclo[2.1.1]hexan-5-yl)-7-(3-chloro-2-cyclopropyl-5-hydroxyphenyl)-4-(3-(dimethylamino)azetidin-1-yl)-6-fluoro-1H-imidazo[4,5-c]quinolin-2-yl)-N,N-dimethylpropanamide] | ≤ 100 | 1000 to 5000 | – |
| CCc1nc2c(N3CC(N(C)C)C3)nc3c(F)c(-c4cc(O)cc5ccccc45)c(-c4cnco4)cc3c2n1C1C2CNC1C2 (single isomer, unassigned) [Example 6a, 4-(1-((endo)-2-azabicyclo[2.1.1]hexan-5-yl)-4-(3-(dimethylamino)azetidin-1-yl)-2-ethyl-6-fluoro-8-(oxazol-5-yl)-1H-imidazo[4,5-c]quinolin-7-yl)naphthalen-2-ol] | 100 to 1000 | 5000 to 10000 | – |
| CN1CCC[C@H]1COc1nc2c(F)c(-c3cc(O)cc4ccccc34)c(CCC#N)cc2c2c1nc(-c1cn(C3CCC3)nn1)n2C1C2CNC1C2 (single isomer, unassigned) [Example 27a] | ≤ 100 | ≤ 100 | – |
| C[C@H](Oc1nc2c(F)c(-c3cccc4cccc(C#N)c34)c(Cl)cc2c2c1ncn2[C@H]1CCN(C(N)=O)[C@H](CC#N)C1)[C@@H]1CCCN1C [Example 42, (2S,4S)-4-(8-chloro-7-(8-cyanonaphthalen-1-yl)-6-fluoro-4-((S)-1-((S)-1-methylpyrrolidin-2-yl)ethoxy)-1H-imidazo[4,5-c]quinolin-1-yl)-2-(cyanomethyl)piperidine-1-carboxamide] | ≤ 100 | ≤ 100 | – |
| CCn1ccc(-c2nc3c(N4CC(N(C)C)C4)nc4c(F)c(-c5cc(O)cc6ccccc56)c(CCC#N)cc4c3n2C2C3CNC2C3)n1 (single isomer, unassigned) [Example 35a, 3-(1-((endo)-2-azabicyclo[2.1.1]hexan-5-yl)-4-(3-(dimethylamino)azetidin-1-yl)-2-(1-ethyl-1H-pyrazol-3-yl)-6-fluoro-7-(3-hydroxynaphthalen-1-yl)-1H-imidazo[4,5-c]quinolin-8-yl)propanenitrile] | ≤ 100 | ≤ 100 | – |
| CCc1nc2c(-c3ccc(C(=O)NC)nc3)nc3c(F)c(-c4cc(O)cc5ccccc45)c(CCC#N)cc3c2n1C1C2CNC1C2 (single isomer, unassigned) [Example 19a, 5-(1-((endo)-2-Azabicyclo[2.1.1]hexan-5-yl)-8-(2-cyanoethyl)-2-ethyl-6-fluoro-7-(3-hydroxynaphthalen-1-yl)-1H-imidazo[4,5-c]quinolin-4-yl)-N-methylpicolinamide] | ≤ 100 | ≤ 100 | – |
| CCc1nc2c(N3CC(N(C)C)C3)nc3c(F)c(-c4cc(O)cc5ccccc45)c(C(CC#N)n4cccn4)cc3c2n1C1C2CNC1C2 (single isomer, unassigned) [Example 7a, 3-(1-((endo)-2-azabicyclo[2.1.1]hexan-5-yl)-4-(3-(dimethylamino)azetidin-1-yl)-2-ethyl-6-fluoro-7-(3-hydroxynaphthalen-1-yl)-1H-imidazo[4,5-c]quinolin-8-yl)-3-(1H-pyrazol-1-yl)propanenitrile] | ≤ 100 | 100 to 1000 | – |
